The text below walks through data of patent US9642831B2, “Substituted chromanes and method of use” (AbbVie S.á.r.l., priority 2014, dated 2017).

Bounds are passed on as bounds.

In this experiment the target is F508delCFTR (Homo sapiens, UniProt P13569, DEL508-508). The experiment is described as follows: Cell Surface Expression-Horse Radish Peroxidase (CSE-HRP) assay. It counts as cell-based. Set-up: expressed in transfected cells; host or cells: CFBE41o- human lung derived epithelial cell line, doxycycline-inducible. Conditions: CFBE4lo-F508delCFTR-HRP cells; for EC50: 18-24 hours at 33° C., 8-point curve, highest concentration 20 μM, luminescence readout; for Emax: maximum % activity at any tested concentration, normalized to on-plate positive control (3 μM Example 1). The text has this:
Cell Surface Expression-Horse Radish Peroxidase (CSE-HRP) Assay:
A cellular assay for measuring the F508delCFTR cell surface expression after correction with test compounds was developed in human lung derived epithelial cell line (CFBE4lo-) (Veit G et al, (2012) Mol Biol Cell. 23(21): 4188-4202). This was achieved by expressing the F508delCFTR mutation along with a horseradish peroxidase (HRP) in the fourth exofacial loop and then measuring the HRP activity using luminescence readout from these cells, CFBE4lo-F508delCFTR-HRP, that were incubated overnight with the test corrector compounds. Briefly, for this primary assay, the CFBE4lo-F508delCFTR-HRP cells were plated in 384-well plates (Greiner Bio-one; Cat 781080) at 4,000 cells/well along with 0.5 μg/mL doxycycline to induce the F508delCFTR-HRP expression and further incubated at 37° C., 5% CO2 for 72 hours. The test compounds were then added at the required concentrations and further incubated for 18-24 hours at 33° C. The highest concentration tested was 20 μM with an 8-point concentration response curve using a 3-fold dilution. Three replicate plates were run to determine one EC50. All plates contained negative controls (dimethyl sulfoxide, DMSO) and positive controls (3 μM of 3-[(2R,4R)-4-({[1-(2,2-difluoro-1,3-benzodioxol-5-yl)cyclopropyl]carbonyl}amino)-7-methoxy-3,4-dihydro-2H-chromen-2-yl]benzoic acid) as well as on-plate concentration response of the positive control. Post incubation, the plates were washed 5× times with Dulbecco's phosphate buffered saline (DPBS), followed by the addition of the HRP substrate, luminol (50 μL), and measuring the HRP activity using luminescence readout on EnVision® Multilabel Plate Reader (Perkin Elmer; product number 2104-0010). The raw counts from the experiment are analyzed using Accelrys® Assay Explorer v3.3.
Z′ greater than 0.5 was used as passing quality control criteria for the plates.
The Z′ is defined as: 1−[3*SDPositive Control+3*SDNegative Control/Absolute(MeanPositive Control−MeanNegative Control)] wherein “SD” is standard deviation.
The % activity measured at each of the 8 test concentrations of the test compound was normalized to the on-plate positive control using the following formula: % activity=[(test compound response−DMSO response)/(positive control response−DMSO response)]*100
The maximum % activity achieved for the test compound at any tested concentration is presented in Table 1 along with the EC50 calculated using the following general sigmoidal curve with variable Hill slope equation (described as Model 42 in the Accelrys® Assay Explorer v3.3 software): y=(a−d)/(1+(x/c)^b)+d
General sigmoidal curve with concentration, response, top, bottom, EC50 and Hill slope.
This model describes a sigmoidal curve with an adjustable baseline, a. The equation can be used to fit curves where response is either increasing or decreasing with respect to the independent variable, “x”.
“x” is a concentration of drug under test.
“a” is the maximum response, and “d” is the minimum response
“c” is the inflection point (EC50) for the curve. That is, “y” is halfway between the lower and upper asymptotes when x=c.
“b” is the slope-factor or Hill coefficient. The sign of b is positive when the response increases with increasing dose and is negative when the response decreases with increasing dose (inhibition).

Sequence of F508delCFTR (P13569 with tags, fused parts or gaps DEL508-508): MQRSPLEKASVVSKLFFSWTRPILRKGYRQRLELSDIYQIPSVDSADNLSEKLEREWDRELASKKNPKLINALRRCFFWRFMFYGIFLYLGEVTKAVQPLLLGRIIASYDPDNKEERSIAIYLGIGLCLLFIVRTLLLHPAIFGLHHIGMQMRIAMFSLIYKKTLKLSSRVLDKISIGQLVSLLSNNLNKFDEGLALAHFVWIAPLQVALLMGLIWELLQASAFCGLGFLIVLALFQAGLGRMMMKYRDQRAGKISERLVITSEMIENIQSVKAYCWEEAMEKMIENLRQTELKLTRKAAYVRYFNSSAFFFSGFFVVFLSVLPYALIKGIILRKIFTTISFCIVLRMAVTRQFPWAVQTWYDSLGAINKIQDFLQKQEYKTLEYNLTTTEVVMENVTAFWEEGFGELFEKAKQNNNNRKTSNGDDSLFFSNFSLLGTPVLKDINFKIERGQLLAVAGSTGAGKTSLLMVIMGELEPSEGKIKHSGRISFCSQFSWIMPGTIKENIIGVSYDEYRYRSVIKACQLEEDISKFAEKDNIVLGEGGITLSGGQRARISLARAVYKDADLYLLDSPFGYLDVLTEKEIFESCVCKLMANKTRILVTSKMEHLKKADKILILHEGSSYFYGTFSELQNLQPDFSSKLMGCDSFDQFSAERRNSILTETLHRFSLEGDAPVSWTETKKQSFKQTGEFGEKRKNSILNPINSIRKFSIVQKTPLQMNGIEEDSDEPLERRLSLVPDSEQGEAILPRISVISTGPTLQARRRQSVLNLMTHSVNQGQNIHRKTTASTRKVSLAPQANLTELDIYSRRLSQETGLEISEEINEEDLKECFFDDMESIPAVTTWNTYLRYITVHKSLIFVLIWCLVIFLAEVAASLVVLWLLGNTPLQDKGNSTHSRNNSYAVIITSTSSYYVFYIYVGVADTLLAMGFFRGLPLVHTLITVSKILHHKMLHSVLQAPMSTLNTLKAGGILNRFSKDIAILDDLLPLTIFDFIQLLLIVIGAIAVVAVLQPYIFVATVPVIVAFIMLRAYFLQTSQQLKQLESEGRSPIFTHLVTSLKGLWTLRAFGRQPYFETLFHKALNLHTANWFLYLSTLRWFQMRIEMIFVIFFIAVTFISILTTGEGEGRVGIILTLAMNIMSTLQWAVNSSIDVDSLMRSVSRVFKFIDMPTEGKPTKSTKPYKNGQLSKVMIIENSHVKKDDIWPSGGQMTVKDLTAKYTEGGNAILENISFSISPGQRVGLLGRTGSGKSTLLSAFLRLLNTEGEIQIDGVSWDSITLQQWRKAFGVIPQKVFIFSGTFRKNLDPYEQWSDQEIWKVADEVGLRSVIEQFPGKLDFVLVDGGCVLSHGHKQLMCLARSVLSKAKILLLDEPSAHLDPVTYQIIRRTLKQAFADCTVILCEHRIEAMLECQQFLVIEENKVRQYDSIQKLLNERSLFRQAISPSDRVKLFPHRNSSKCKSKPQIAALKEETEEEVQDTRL

`CC1(C)C[C@@H](NC(=O)C2(c3ccc4c(c3)OC(F)(F)O4)CC2)c2ccc(F)cc2O1` [Example 86, 1-(2,2-difluoro-1,3-benzodioxol-5-yl)-N-[(4R)-7-fluoro-2,2-dimethyl-3,4-dihydro-2H-chromen-4-yl]cyclopropanecarboxamide] showed a concentration giving a half-maximal response (EC50) of 3500 nM and an Emax of 101%.
The molecule `COc1ccc2c(c1)O[C@@H](C(=O)N1CCOCC1)C[C@@H]2NC(=O)C1(c2ccc3c(c2)OC(F)(F)O3)CC1` (racemic) [Example 196, rac-1-(2,2-difluoro-1,3-benzodioxol-5-yl)-N-[(2R,4S)-7-methoxy-2-(morpholin-4-ylcarbonyl)-3,4-dihydro-2H-chromen-4-yl]cyclopropanecarboxamide] came in with an EC50 of 1240 nM and a maximal effect (Emax) of 67%.
Consider `Cc1ccc2c(c1)O[C@@H](c1cccc(C(=O)O)c1)C[C@H]2NC(=O)C1(c2ccc3c(c2)OC(F)(F)O3)CC1` [Example 16, 3-[(2R,4R)-4-({[1-(2,2-difluoro-1,3-benzodioxol-5-yl)cyclopropyl]carbonyl}amino)-7-methyl-3,4-dihydro-2H-chromen-2-yl]benzoic acid], for which the 50% effective concentration (EC50) was 370 nM and the maximal effect (Emax) was determined as 108%.
In the case of `COc1ccc2c(c1)O[C@@H](C(=O)N(C)C1COC1)C[C@H]2NC(=O)C1(c2ccc3c(c2)OC(F)(F)O3)CC1` (racemic) [Example 176, rac-(2R,4R)-4-({[1-(2,2-difluoro-1,3-benzodioxol-5-yl)cyclopropyl]carbonyl}amino)-7-methoxy-N-methyl-N-(oxetan-3-yl)-3,4-dihydro-2H-chromene-2-carboxamide], the half-maximal effective concentration (EC50) came out at 9630 nM and the Emax stood at 30%.
`COc1ccc(C2CC(NC(=O)C3(c4ccc5c(c4)OC(F)(F)O5)CC3)c3ccccc3O2)cc1OC` (stereo not drawn) [Example 69, 1-(2,2-difluoro-1,3-benzodioxol-5-yl)-N-[2-(3,4-dimethoxyphenyl)-3,4-dihydro-2H-chromen-4-yl]cyclopropanecarboxamide] returned an EC50 of 2120 nM and an Emax of 109%.
As to `COC(=O)c1cccc([C@H]2C[C@@H](NC(=O)C3(c4ccc5c(c4)OC(F)(F)O5)CC3)c3ccc(F)cc3O2)c1` [Example 39, methyl 3-[(2R,4R)-4-({[1-(2,2-difluoro-1,3-benzodioxol-5-yl)cyclopropyl]carbonyl}amino)-7-fluoro-3,4-dihydro-2H-chromen-2-yl]benzoate], the concentration giving a half-maximal response (EC50) turned out to be 1720 nM and the maximal effect (Emax) is 82%.
The like results for `O=C(NC1CCOc2cc(Br)ccc21)C1(c2ccc3c(c2)OC(F)(F)O3)CC1` (stereo not drawn) [Example 56, N-(7-bromo-3,4-dihydro-2H-chromen-4-yl)-1-(2,2-difluoro-1,3-benzodioxol-5-yl)cyclopropanecarboxamide] were, in that order, 3120 nM and 124%.
Regarding `COc1ccc2c(c1)O[C@@H](C(=O)N(C)CC(O)c1ccccc1)C[C@@H]2NC(=O)C1(c2ccc3c(c2)OC(F)(F)O3)CC1` (mixture of isomers) [Example 185, rac-(2R,4S)-4-({[1-(2,2-difluoro-1,3-benzodioxol-5-yl)cyclopropyl]carbonyl}amino)-N-(2-hydroxy-2-phenylethyl)-7-methoxy-N-methyl-3,4-dihydro-2H-chromene-2-carboxamide], the half-maximal effective concentration (EC50) stood at 640 nM and the Emax was determined as 77%.
`COc1ccc2c(c1)OC(C1CN(C(=O)OC(C)(C)C)C1)CC2NC(=O)C1(c2ccc3c(c2)OC(F)(F)O3)CC1` (mixture of isomers) [Example 115, tert-butyl 3-[4-({[1-(2,2-difluoro-1,3-benzodioxol-5-yl)cyclopropyl]carbonyl}amino)-7-methoxy-3,4-dihydro-2H-chromen-2-yl]azetidine-1-carboxylate] showed a 50% effective concentration (EC50) of 1940 nM and an Emax of 77%.
The like results for `COc1ccc2c(c1)O[C@@H](C(=O)NC(CO)CO)C[C@H]2NC(=O)C1(c2ccc3c(c2)OC(F)(F)O3)CC1` (racemic) [Example 180, rac-(2R,4R)-4-({[1-(2,2-difluoro-1,3-benzodioxol-5-yl)cyclopropyl]carbonyl}amino)-N-(1,3-dihydroxypropan-2-yl)-7-methoxy-3,4-dihydro-2H-chromene-2-carboxamide] were, in that order, 5930 nM and 59%.
The molecule `COc1ccc2c(c1)O[C@@H](C(=O)NC(CO)c1ccccc1)C[C@@H]2NC(=O)C1(c2ccc3c(c2)OC(F)(F)O3)CC1` (mixture of isomers) [Example 190, rac-(2R,4S)-4-({[1-(2,2-difluoro-1,3-benzodioxol-5-yl)cyclopropyl]carbonyl}amino)-N-(2-hydroxy-1-phenylethyl)-7-methoxy-3,4-dihydro-2H-chromene-2-carboxamide] displayed a concentration for a half-maximal effect (EC50) of 2790 nM and an Emax of 39%.
Molecule `O=C(NC1CC(c2ccccc2Cl)Oc2ccccc21)C1(c2ccc3c(c2)OC(F)(F)O3)CC1` (stereo not drawn) [Example 65, N-[2-(2-chlorophenyl)-3,4-dihydro-2H-chromen-4-yl]-1-(2,2-difluoro-1,3-benzodioxol-5-yl)cyclopropanecarboxamide] yielded an EC50 of 10100 nM and an Emax of 45%.
In turn, `O=C(O)c1cccc([C@H]2C[C@@H](NC(=O)C3(c4ccc5c(c4)OC(F)(F)O5)CC3)c3ccc(O)cc3O2)c1` [Example 23, 3-[(2R,4R)-4-({[1-(2,2-difluoro-1,3-benzodioxol-5-yl)cyclopropyl]carbonyl}amino)-7-hydroxy-3,4-dihydro-2H-chromen-2-yl]benzoic acid] displayed a concentration giving a half-maximal response (EC50) not below 20000 nM and a maximal response (Emax) of 12%.
For `COc1ccc2c(c1)O[C@@H](C(=O)O)C[C@H]2NC(=O)C1(c2ccc3c(c2)OC(F)(F)O3)CC1` (racemic) [Example 164, rac-(2R,4R)-4-({[1-(2,2-difluoro-1,3-benzodioxol-5-yl)cyclopropyl]carbonyl}amino)-7-methoxy-3,4-dihydro-2H-chromene-2-carboxylic acid], the concentration for a half-maximal effect (EC50) is more than 20000 nM and the Emax stood at 2%.
The like results for `COc1ccc2c(c1)O[C@@H](C(=O)NCCc1cccc(O)c1)C[C@H]2NC(=O)C1(c2ccc3c(c2)OC(F)(F)O3)CC1` (racemic) [Example 179, rac-(2R,4R)-4-({[1-(2,2-difluoro-1,3-benzodioxol-5-yl)cyclopropyl]carbonyl}amino)-N-[2-(3-hydroxyphenyl)ethyl]-7-methoxy-3,4-dihydro-2H-chromene-2-carboxamide] were, in that order, 800 nM and 69%.
For the molecule `O=C(O)c1csc([C@H]2C[C@H](NC(=O)C3(c4ccc5c(c4)OC(F)(F)O5)CC3)c3ccccc3O2)n1` (relative stereo) [Example 144, rel-2-[(2R,4S)-4-({[1-(2,2-difluoro-1,3-benzodioxol-5-yl)cyclopropyl]carbonyl}amino)-3,4-dihydro-2H-chromen-2-yl]-1,3-thiazole-4-carboxylic acid], the EC50 was more than 20000 nM and the Emax amounted to 11%.
`COC(=O)c1cccc([C@H]2C[C@H](NC(=O)C3(c4ccc5c(c4)OC(F)(F)O5)CC3)c3ccc(OC)cc3O2)c1` [Example 5, methyl 3-[(2R,4S)-4-({[1-(2,2-difluoro-1,3-benzodioxol-5-yl)cyclopropyl]carbonyl}amino)-7-methoxy-3,4-dihydro-2H-chromen-2-yl]benzoate] had an EC50 of 2450 nM and a maximum response (Emax) of 92%.
`CC1(C)C[C@@H](NC(=O)C2(c3ccc4c(c3)OC(F)(F)O4)CC2)c2ccc(Cl)cc2O1` [Example 76, N-[(4R)-7-chloro-2,2-dimethyl-3,4-dihydro-2H-chromen-4-yl]-1-(2,2-difluoro-1,3-benzodioxol-5-yl)cyclopropanecarboxamide] gave an EC50 of 2990 nM and a maximal response (Emax) of 105%.

By EC50 is commonly meant the concentration at which the effect is half-maximal. A higher EC50 goes with a need for much substance. A word on the Emax: it is the maximal effect, on the per cent scale that the assay sets.
